Data as given in patent US6855308B2, “PACAP compositions and methods for tumor imaging and therapy” (Thomas Jefferson University, priority 2001, dated 2005).
Entries after “also recorded” stand apart in the source; their conditions may differ. Ends that are not written are not given here. * marks the point of attachment. DTPA = O=C(O)CN(CCN(CC(=O)O)CC(=O)O)CCN(CC(=O)O)CC(=O)*

Tests used:
[1] = system: breast tumors; assay: tumor uptake in tumor-bearing mice; details: 24 hr post-injection
Method: (§1) Approximately 5×10^6 viable cells from either tumor cell line are implanted in the right thigh of each mouse, and tumors are allowed to form. […] Animals are sacrificed at 15 min, 1 hr, 2 hr, 4 hr and 24 hr post-injection, and % of ID/g tissue is determined in all tissues. A control group of tumor-bearing mice is injected with PACAP27 mono-iodinated with ^125I. […] All animals are imaged using a GE STARCAM gamma camera equipped with a dedicated computer and a low energy parallel hole collimator.
(§2) The co-injected ^99mTc-TP 3475 and ^111In-DTPA-D-Phe^1-Octreotide in the mouse tissues were counted by using the characteristic energy windows for their respective radionuclides (±15 or 20%); e.g., 140 KeV for ^99mTc, and 173 KeV and 247 KeV for ^111In. The ^111In counts in the tissues were again determined when ^99mTc was completely decayed (e.g., 10-12 half-lives).

[2] = reduced from 100 for PACAP27; cited from earlier work
[3] = system: normal lung membrane; details: cited from earlier work
[4] = system: PACAP, VIP-R1 and VIP-R2 receptors; details: cited from earlier work
[5] = system: internal anal sphincter (IAS) smooth muscle; assay: basal tension of opossum internal anal sphincter (IAS) smooth muscle; design: species or system opossum (Didelphis virginiana); details: 10^−5 M concentration
Method: PACAP27 is known to cause a concentration-dependent fall in the basal tension of IAS, by the assay described in Rattan S et al., J. Pharmcol. Exper. Thera. 263: 722-728, 1997, the entire disclosure of which is herein incorporated by reference. This IAS assay was performed with increasing concentrations of TP 3475 until a maximum fall is reached, essentially as described below. PACAP27 was used as a control.
[…]. The large blood vessels and extraneous tissues including the external […] were removed, and the anal canal was opened and pinned flat with the mucosal side up on a dissecting tray containing oxygenated Krebs' solution (NaCl, 118.07; KCl, 4.69; CaCl2, 2.52; MgS04, 1.16; NaH2PO4, 1.01; NaHC03, 25; and glucose, 11.10). The mucosa was removed, and internal anal sphincter circular smooth muscle strips (approximately 2 mm×1 cm) were prepared from the lowermost part of the anal canal.
Measurement of isometric tension—The IAS smooth muscle strips were transferred to temperature-controlled 2 ml “muscle baths” containing Krebs' solution, bubbled continuously with a mixture of 95% O2-5% CO2. […] Isometric tensions were recorded on a Beckman Dynograph recorder (Beckman Instruments, Schiller Park, Ill.). […] Both optimal length and base-line were determined as described in Rattan S et al., 1997, supra.

[6] = system: adenylate cyclase; details: pituitary cells; cited from earlier work
[7] = system: primary breast cancers; details: cited from earlier work
[8] = in vivo; details: nude, mouse, iv, total radioactivity
Method: as §1, §2

[9] = assay type: physicochemical
Method: For the metallization reaction, the vial contents were allowed to come to ambient temperature, and 10-40 mCi ^99mTc in 200 μl 0.9% NaCl was injected into the vial. The mixture was incubated at 100° C. for 30 min, and the pH of the reaction mixture was raised to 6-6.5 by addition of 1 ml 0.1 M Na2HPO4. One-hundred twenty-five mg of Na-ascorbate was added as a stabilizing agent. […] The yields at 22° C. are quantitative as determined by HPLC, producing a single peak at Rt. 12.5 min.

[10] = design: species or system Sprague-Dawley rats; details: rat, in vivo, iv
Method: The blood clearance of ^99mTc-TP 3475 was studied in Sprague-Dawley rats as follows. Three Sprague Dawley rats, each weighing approximately 250 grams, were injected through one lateral tail vein with one mCi of ^99mTc-TP 3475, and serial blood samples were drawn in triplicate through the other lateral tail vein at 1, 5, 10, 15, and 30 minutes post-injection, and at 1, 2, 4, 6, 18 and 24 hours post injection. The blood samples were weighed, and radioactivity was counted against a standard ^99mTc solution prepared at the time of injection using standard scintillation counting techniques. The % ID/g plotted as a function of time.

[11] = system: T47D xenografts; assay: receptor blocking study with PACAP in tumor-bearing mice; assay type: in vivo; details: PACAP pre-injected; nude mice with T47D xenografts
Method: In order to determine receptor specificity of […] in human breast tumors, receptor blocking studies with PACAP were performed. In nude mice with T47D xenografts, ^99mTc-TP 3475 tumor uptake was reduced by approximately 50% when PACAP was pre-injected.

[C-]#[N+]CC(C)(C)OC.[C-]#[N+]CC(C)(C)OC.[C-]#[N+]CC(C)(C)OC.[C-]#[N+]CC(C)(C)OC.[C-]#[N+]CC(C)(C)OC.[C-]#[N+]CC(C)(C)OC.[Tc] [^99mTc-Sesta-MIBI]
tumor uptake [1]: 0.18±0.0 % ID/g

PACAP27 linked to DTPA at its N-terminus: PACAP27 linked to DTPA at its N-terminus (Reubi et al. 1997) ({DTPA}-HSDGIFTDSYSRYRKQMAVKKYLAAVL; ends and bridges not checked; UniProt P18509 132-158, looked up)
biological activity [2]: < 0.01

VIP28: 28-amino acid vasoactive intestinal peptide
IC50 [3]: ~15 nM | receptor binding affinity [4]: binds with high affinity only to VIP-R1 and VIP-R2 receptors

HSDGIFTDSYSRYRKQMAVKKYLAAVL [PACAP27]
% fall in IAS tension [5]: equivalent fall in IAS tension; also recorded: equal | IC50 [3]: ~1.5 nM | receptor binding affinity [4]: binds with high affinity to PACAP, VIP-R1 and VIP-R2 receptors | potency in stimulating adenylate cyclase relative to VIP28 [6]: ten times more potent

C[C@@H](O)[C@@H]1NC(=O)[C@H](CCCCN)NC(=O)[C@@H](Cc2c[nH]c3ccccc23)NC(=O)[C@H](Cc2ccccc2)NC(=O)[C@@H](NC(=O)[C@@H](Cc2ccccc2)NC(=O)CN(CCN(CCN(CC(=O)O)CC(=O)O)CC(=O)O)CC(=O)O)CSSC[C@@H](C(=O)N[C@H](CO)[C@@H](C)O)NC1=O [^111In-DTPA-D-Phe^1-Octreotide, metal not drawn]
positive scintigraphy ([7]; 52 primary breast cancers): 75% | patients in whom imaging of axillae detected non-palpable, cancer-containing lymph nodes ([7]; patients with histologically-proven metastases): 4 of 13 | tissue uptake at 24 h [8]: 0.09 ± 0.01 %ID/g

TP 3475: PACAP27 linked via a C-terminal Aba spacer to a Gly-(D)Ala-Gly-Gly chelating agent; SEQ ID NO: 5 (HSDGIFTDSYSRYRKQMAVKKYLAAVLXGAGG; C-terminal Aba spacer, Gly-(D)Ala-Gly-Gly chelator; PACAP analog TP 3475)
% fall in IAS tension [5]: equivalent fall in IAS tension; also recorded: equal

CC[C@H](C)[C@H](NC(=O)CNC(=O)[C@H](CC(=O)O)NC(=O)[C@H](CO)NC(=O)[C@@H](N)Cc1c[nH]cn1)C(=O)N[C@@H](Cc1ccccc1)C(=O)N[C@H](C(=O)N[C@@H](CC(=O)O)C(=O)N[C@@H](CO)C(=O)N[C@@H](Cc1ccc(O)cc1)C(=O)N[C@@H](CO)C(=O)N[C@@H](CCCNC(=N)N)C(=O)N[C@@H](Cc1ccc(O)cc1)C(=O)N[C@@H](CCCNC(=N)N)C(=O)N[C@@H](CCCCN)C(=O)N[C@@H](CCC(N)=O)C(=O)N[C@@H](CCSC)C(=O)N[C@@H](C)C(=O)N[C@H](C(=O)N[C@@H](CCCCN)C(=O)N[C@@H](CCCCN)C(=O)N[C@@H](Cc1ccc(O)cc1)C(=O)N[C@@H](CC(C)C)C(=O)N[C@@H](C)C(=O)N[C@@H](C)C(=O)N[C@H](C(=O)N[C@@H](CC(C)C)C(=O)NCCCC(=O)NCC(=O)N[C@H](C)C(=O)NCC(=O)NCC(=O)O)C(C)C)C(C)C)[C@@H](C)O [^99mTc-TP 3475, metal not drawn]
stability [9]: stable for 24 hr | blood clearance α-t½ ([10]; Sprague-Dawley): approximately 6 min | blood clearance β-t½ ([10]; Sprague-Dawley): approximately 90 min | time in which 75% of the radioactivity is cleared from the circulation [10]: about 12 minutes | reduction of tumor uptake [11]: approximately 50% | tissue uptake at 24 h [8]: ~0.2 %ID/g
